Test results published in ChEMBL document CHEMBL1201862, “PubChem BioAssay data set” (2004).
Active and inactive are the calls of the source.

Key:
[1] = A cytotoxicity screen of small molecule inhibitors of the PhoP region in Salmonella typhi identified in the primary screen. [Related pubchem assays: 1850, 1864, 1985 ]; type: functional
[2] = NIH-3T3 fibroblast cytotoxicity, dose response, cytotoxicity control, cell-based, fluorescence, Alamar Blue, secondary assay (AID 2327); type: functional;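 further: NIH-3T3 mouse fibroblasts cultured with fluconazole at 8 µg/mL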
[3] = cytotoxicity toward NIH3T3 fibroblasts, dose response, counter-screen, cell-based, ATP luminescence, mouse fibroblasts (AID 2010); type: functional;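 further: cells exposed to compound for about 90 hours before reading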
[4] = inhibitors of intracellular T. cruzi replication, confirmation, NIH3T3 host cells, beta-gal luminescence (AID 2044); type: functional, cell-based;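 further: intracellular parasites grown in NIH/3T3 mouse fibroblasts as host cells; luminescent beta-galactosidase reporter signal from transgenic T. cruzi replicating inside host cells; inhibitors lower the luminescence signal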
Streptococcus = assay: Group A Streptococcus viability loss, dose response, counter-screen for streptokinase expression inhibitor project, luminescence, BacTiterGlo (AID 1915); type: functional, organism-based;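 further: potency for reduction of bacterial viability or growth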
[5] = THP-1 cell cytotoxicity, dose response, cytotoxicity control for non-replicating M. tuberculosis project (AID 489025); type: functional
[6] = target: T1, Short transient receptor potential channel 4 (Mus musculus, UniProt Q9QUQ5); assay: mouse TRPC4 channel activators, dose response, cell-based, HEK293 TRPC4/mu-opioid, Fluo-4 calcium (AID 434937); type: functional
T1 sequence (Q9QUQ5 whole entry): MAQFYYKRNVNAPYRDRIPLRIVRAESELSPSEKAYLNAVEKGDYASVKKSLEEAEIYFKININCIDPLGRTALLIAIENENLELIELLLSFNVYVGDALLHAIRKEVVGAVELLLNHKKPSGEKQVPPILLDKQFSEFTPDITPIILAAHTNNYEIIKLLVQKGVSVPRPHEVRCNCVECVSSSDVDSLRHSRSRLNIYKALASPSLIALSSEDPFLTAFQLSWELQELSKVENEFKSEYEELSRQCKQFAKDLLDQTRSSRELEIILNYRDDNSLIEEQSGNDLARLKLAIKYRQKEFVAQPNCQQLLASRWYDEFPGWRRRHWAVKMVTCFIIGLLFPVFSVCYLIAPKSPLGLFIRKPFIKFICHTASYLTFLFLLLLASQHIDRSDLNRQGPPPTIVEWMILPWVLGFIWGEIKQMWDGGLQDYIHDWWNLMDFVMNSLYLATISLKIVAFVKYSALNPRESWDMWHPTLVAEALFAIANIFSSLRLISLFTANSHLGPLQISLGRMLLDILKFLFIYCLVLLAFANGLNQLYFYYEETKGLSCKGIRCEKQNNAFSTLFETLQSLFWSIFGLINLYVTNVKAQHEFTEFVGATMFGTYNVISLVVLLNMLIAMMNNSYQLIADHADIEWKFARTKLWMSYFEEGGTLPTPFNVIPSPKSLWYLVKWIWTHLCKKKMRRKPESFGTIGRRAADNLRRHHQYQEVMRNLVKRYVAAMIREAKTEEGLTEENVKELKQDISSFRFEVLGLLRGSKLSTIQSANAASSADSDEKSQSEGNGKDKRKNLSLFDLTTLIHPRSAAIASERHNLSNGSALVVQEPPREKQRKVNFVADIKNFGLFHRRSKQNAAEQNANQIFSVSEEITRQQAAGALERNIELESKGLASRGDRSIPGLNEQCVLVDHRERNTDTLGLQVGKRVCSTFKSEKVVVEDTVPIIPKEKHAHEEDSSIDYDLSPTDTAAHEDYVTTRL

cells = type: functional
[7] = test system: Streptococcus sp. 'group A'; assay: growth inhibition of control SK(-) GAS strain, dose response, counter-screen for streptokinase expression inhibitor project, luminescence, kanamycin, BacTiterGlo, confirmation (AID 1900); type: functional, organism-based
[8] = C. albicans growth with fluconazole, confirmation, fluorescence, retest (AID 2467); type: functional, cell-based
HEK293 [9] = assay: cells; type: functional, cell-based; details: Homo sapiens
HEK293 [10] = assay: cells; details: Homo sapiens
[11] = target: T2, Nucleotide-binding oligomerization domain-containing protein 1 (Homo sapiens, UniProt Q9Y239); assay: NOD1 signaling inhibitors, SAR follow-up, revised (AID 2333); type: functional
T2 sequence (Q9Y239 whole entry): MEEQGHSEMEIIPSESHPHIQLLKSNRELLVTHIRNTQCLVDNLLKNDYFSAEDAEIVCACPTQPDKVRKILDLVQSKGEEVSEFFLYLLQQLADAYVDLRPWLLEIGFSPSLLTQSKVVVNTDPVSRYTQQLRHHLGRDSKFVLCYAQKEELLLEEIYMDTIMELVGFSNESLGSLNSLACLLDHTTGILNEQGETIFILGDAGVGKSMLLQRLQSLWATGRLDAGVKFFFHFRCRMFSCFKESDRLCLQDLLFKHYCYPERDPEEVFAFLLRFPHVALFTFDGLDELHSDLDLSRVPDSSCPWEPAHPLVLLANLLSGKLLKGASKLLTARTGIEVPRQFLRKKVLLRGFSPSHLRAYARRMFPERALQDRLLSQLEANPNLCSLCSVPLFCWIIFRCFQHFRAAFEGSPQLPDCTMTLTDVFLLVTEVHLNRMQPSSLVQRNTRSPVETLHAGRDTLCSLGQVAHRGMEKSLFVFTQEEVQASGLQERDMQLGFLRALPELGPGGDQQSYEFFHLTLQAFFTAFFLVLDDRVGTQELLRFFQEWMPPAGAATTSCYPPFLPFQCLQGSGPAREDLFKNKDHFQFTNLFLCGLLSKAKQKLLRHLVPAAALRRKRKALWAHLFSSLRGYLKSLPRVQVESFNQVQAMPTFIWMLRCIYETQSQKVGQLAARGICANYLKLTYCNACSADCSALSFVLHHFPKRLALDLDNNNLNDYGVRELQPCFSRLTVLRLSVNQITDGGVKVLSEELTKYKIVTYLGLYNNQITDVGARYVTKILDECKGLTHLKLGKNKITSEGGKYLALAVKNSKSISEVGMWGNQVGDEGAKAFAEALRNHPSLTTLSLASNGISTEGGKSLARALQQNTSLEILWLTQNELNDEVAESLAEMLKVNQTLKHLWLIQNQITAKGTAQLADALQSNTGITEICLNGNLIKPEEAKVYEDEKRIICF

HEK293 [12] = assay: NOD1 signaling inhibitors, primary screen, cell-based, luminescence, uHTS (AID 1578); type: functional; details: Homo sapiens
HEK293 [13] = assay: cells; type: functional, cell-based; details: Homo sapiens; remark: listed apart in the source
HEK293 [14] = assay: NOD2 signaling inhibitors in MDP-stimulated cells, cell-based, uHTS, luminescence (AID 2001); type: functional; details: Homo sapiens
INS1 = assay: beta cell apoptosis inhibitors, cytokine rescue, dose response, luminescence, retest (AID 449756); type: functional, cell-based; details: Rattus norvegicus;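 further: cell death triggered by IL-1 beta plus TNF-alpha plus IFN-gamma mixture; protective hits raise ATP signal compared with cytokine alone wells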
Tumor necrosis factor = Tumor necrosis factor (Homo sapiens, UniProt P01375); assay: TNFa-triggered NF-kB activation inhibitors, SAR follow-up, cell-based, revised (AID 2337); type: functional
[15] = target: T3, Microphthalmia-associated transcription factor (Homo sapiens, UniProt O75030); assay: TRPM1 promoter luciferase signal decrease, dose response, MITF inhibitor project, cell-based, SK-MEL-5, cherry-picked, set 3 (AID 493073); type: functional
T3 sequence (O75030 whole entry): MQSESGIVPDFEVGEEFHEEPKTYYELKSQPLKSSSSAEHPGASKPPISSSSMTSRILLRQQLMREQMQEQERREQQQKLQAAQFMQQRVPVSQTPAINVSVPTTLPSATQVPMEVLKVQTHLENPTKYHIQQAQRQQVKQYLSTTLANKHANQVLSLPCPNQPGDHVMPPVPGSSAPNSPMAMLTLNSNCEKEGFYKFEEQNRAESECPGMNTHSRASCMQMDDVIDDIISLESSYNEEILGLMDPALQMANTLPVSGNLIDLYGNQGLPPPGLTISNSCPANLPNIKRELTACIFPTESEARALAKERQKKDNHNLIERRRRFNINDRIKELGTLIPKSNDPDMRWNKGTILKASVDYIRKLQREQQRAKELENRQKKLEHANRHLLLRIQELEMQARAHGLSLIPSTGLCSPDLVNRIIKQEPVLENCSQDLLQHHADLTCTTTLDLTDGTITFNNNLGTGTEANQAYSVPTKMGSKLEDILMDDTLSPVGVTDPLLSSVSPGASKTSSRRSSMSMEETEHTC

[16] = cytotoxicity in HEK-293T cells, dose response, cytotoxicity control for TCR NF-kB inhibitor project, luminescence, T-cell screen hits (AID 489026); type: functional, cell-based;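 further: cells exposed to compound about 14 hours before the viability readout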
[17] = target: T1, Short transient receptor potential channel 4; assay: mouse TRPC4 channel inhibitors, dose response, cell-based, HEK293 TRPC4/mu-opioid, Fluo-4 calcium (AID 434942); type: functional;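 further: potency of inhibitors blocking the TRPC4 calcium response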
[18] = target: T4, Rac GTPase-activating protein 1 (Homo sapiens, UniProt Q9H0H5); assay: MgcRacGAP GTPase-activating activity inhibitors, confirmation, biochemical, ADP Hunter fluorescence, primary and confirmatory (AID 624330); type: functional
T4 sequence (Q9H0H5 whole entry): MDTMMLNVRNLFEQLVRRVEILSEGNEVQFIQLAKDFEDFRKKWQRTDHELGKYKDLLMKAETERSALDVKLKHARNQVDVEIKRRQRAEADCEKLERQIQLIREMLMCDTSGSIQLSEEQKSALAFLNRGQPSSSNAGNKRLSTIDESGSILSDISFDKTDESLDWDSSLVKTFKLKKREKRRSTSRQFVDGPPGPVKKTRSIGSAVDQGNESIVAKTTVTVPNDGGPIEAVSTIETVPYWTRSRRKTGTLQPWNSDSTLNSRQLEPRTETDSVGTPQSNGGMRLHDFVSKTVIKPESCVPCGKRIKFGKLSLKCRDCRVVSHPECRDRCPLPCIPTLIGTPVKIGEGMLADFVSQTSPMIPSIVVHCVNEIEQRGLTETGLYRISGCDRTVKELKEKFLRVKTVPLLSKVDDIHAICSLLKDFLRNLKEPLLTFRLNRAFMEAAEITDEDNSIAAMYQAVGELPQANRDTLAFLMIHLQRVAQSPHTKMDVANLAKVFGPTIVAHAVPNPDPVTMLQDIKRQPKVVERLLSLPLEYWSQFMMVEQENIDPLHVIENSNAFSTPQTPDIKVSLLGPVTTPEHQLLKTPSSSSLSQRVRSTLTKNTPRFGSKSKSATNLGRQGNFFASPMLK

[19] = target: DNA dC->dU-editing enzyme APOBEC-3G (Homo sapiens, UniProt Q9HC16); assay: Dose Response confirmation of small molecule APOBEC3G DNA Deaminase Inhibitors via a fluorescence-based single-stranded DNA deaminase assay. [Related pubchem assays (depositor defined):AID493012, AID493028]; type: functional
Cytochrome P450 2D6 = Cytochrome P450 2D6 (Homo sapiens, UniProt P10635);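 further: CYP2D6 member of a cytochrome P450 panel assay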
[20] = target: Induced myeloid leukemia cell differentiation protein Mcl-1 (Homo sapiens, UniProt Q07820); type: functional
Induced myeloid leukemia cell differentiation protein Mcl-1, sequence (Q07820 whole entry): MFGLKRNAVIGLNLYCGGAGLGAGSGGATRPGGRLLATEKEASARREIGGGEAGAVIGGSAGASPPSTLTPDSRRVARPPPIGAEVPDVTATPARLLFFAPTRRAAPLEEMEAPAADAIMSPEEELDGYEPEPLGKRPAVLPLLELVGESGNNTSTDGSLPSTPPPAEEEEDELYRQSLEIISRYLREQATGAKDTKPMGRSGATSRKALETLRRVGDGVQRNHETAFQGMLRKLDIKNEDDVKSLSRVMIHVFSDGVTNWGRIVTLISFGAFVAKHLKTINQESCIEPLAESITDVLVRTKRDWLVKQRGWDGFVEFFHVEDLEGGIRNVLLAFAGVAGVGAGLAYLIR

Cytochrome P450 2D6, sequence (P10635 whole entry): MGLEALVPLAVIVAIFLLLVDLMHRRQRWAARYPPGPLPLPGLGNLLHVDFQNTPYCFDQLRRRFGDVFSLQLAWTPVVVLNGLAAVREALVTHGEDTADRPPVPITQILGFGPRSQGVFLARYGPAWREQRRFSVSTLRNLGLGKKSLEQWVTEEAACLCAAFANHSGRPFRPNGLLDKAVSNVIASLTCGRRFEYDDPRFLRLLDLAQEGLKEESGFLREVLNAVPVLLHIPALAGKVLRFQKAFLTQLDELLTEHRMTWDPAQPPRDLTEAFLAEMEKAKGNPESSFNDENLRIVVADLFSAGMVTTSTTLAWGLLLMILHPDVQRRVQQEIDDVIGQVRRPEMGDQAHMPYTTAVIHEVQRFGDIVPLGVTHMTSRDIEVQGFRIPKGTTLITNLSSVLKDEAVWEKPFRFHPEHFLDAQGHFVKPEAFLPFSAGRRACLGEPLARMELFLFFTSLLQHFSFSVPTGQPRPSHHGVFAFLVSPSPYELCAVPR
DNA dC->dU-editing enzyme APOBEC-3G, sequence (Q9HC16 whole entry): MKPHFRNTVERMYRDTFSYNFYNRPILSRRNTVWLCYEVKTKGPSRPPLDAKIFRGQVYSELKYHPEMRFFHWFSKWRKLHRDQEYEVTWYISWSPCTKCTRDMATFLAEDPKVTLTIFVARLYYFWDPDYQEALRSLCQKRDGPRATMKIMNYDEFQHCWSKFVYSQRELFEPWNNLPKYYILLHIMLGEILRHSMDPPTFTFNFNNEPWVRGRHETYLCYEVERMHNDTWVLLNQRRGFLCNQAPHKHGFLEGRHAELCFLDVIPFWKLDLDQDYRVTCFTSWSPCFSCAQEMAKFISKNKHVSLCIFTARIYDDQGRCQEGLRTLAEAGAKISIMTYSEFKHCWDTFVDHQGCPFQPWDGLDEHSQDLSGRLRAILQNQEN
Tumor necrosis factor, sequence (P01375 whole entry): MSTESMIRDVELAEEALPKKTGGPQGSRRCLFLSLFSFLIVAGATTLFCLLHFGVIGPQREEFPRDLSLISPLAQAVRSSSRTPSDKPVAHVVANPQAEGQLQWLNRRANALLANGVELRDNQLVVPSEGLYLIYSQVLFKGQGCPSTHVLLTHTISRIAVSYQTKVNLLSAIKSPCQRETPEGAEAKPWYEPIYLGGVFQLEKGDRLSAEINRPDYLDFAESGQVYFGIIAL

Clc1cccc(CN2C3=NCCCN3c3ccccc32)c1
EC50 [1]: > 50 µM (active)

O=C(NC(=S)NNC(=O)[C@H]1C[C@@H]1c1ccccc1)c1cccc(F)c1
EC50 [2]: > 160 µM (inactive)
EC50 [3]: 17.6 µM (active)
EC50 [4]: 3.91 µM (active)
EC50 (Streptococcus): 3.65 µM (active)
CC50 [5]: > 40 µM (active)
EC50 [6]: 4.22 µM (active)
IC50 (cells): 18.8 µM (active)
EC50 [7]: 1.89 µM (active)
EC50 [8]: 1.91 µM (active)

CN(C)S(=O)(=O)c1cccc(CSCc2cccc(S(=O)(=O)N(C)C)c2)c1
IC50 (HEK293 [9]): > 20 µM (inactive)
IC50 (HEK293 [10]): > 20 µM (inactive)
IC50 [11]: 2.12 µM (active)
EC50 (HEK293 [12]): 1.3 µM (active)
IC50 (HEK293 [13]): 3.06 µM (active)
IC50 (HEK293 [14]): 5 µM (active)
AC50 (INS1): 3.3 µM (active)
IC50 (Tumor necrosis factor): 2.09 µM (active)

CCN1CCc2c(sc(NC(=O)c3ccc(S(=O)(=O)N4CCCC4)cc3)c2C(=O)NC)C1
AC50 [15]: 9.14 µM (active)

COc1ccc(OC)c(Nc2cc(-c3ccccc3)nc(N)n2)c1
IC50 [16]: > 80 µM (inactive)
EC50 [17]: 4.73 µM (active)

Cc1cc(NS(=O)(=O)c2ccc(NC(=O)C(C)Oc3ccc4c(C)cc(=O)oc4c3)cc2)no1 (stereo unspecified)
EC50 [1]: > 50 µM (active)

CCCCN(CCCC)CCNC(=O)CSCc1ccc(C)cc1
EC50 [1]: > 50 µM (active)
IC50 [18]: 147 µM (active)

Cn1c(CN2CCCC2)nc2cc(NC(=O)COc3ccc(Cl)cc3)ccc21
EC50 [1]: > 50 µM (active)

C=C(C)C(=O)Nc1cccc(C2=NOC3(C2)C[C@@H](C(N)=O)N(C(=O)[C@H]2CCC(=O)N2)C3)c1 (stereo partly specified)
IC50 [19]: 19.3 µM (active)

CCCCN=C(S)NNC(=O)c1sccc1C
AC50 (Cytochrome P450 2D6): inconclusive

CC(C)Nc1c([N+](=O)[O-])nn(C)[n+]1[O-]
AC50 [15]: 299 µM (active)

CCn1nc(C)cc1C(=O)NC1CCCc2c1cnn2-c1ccc(C)c(C)c1 (stereo unspecified)
IC50 (HEK293 [10]): > 20 µM (inactive)
IC50 [11]: 4.76 µM (active)
IC50 (Tumor necrosis factor): 4.43 µM (active)

CCCCn1c(NCc2ccc(N(C)C)cc2)nc2ccccc21
IC50 [20]: 1.26 µM (active)
EC50 [17]: 1.5 µM (active)

O=C(CC(=O)NCc1ccccc1)NCc1ccccc1
EC50 [1]: > 50 µM (active)

O=C(c1cccc(C(F)(F)F)c1)C1CCCN(Cc2cccn2-c2ccccn2)C1 (stereo unspecified)
EC50 [17]: 5.96 µM (active)

COCCn1c(C)cc(C(=O)CSc2nnc(C)s2)c1C
AC50 [15]: 3.04 µM (active)

COc1ccc(C(=O)Nc2ccc(NC(=O)c3ccco3)c(Cl)c2)cc1OC
AC50 (Cytochrome P450 2D6): inconclusive

O=C(CSc1ccccc1)Nc1nnc(COc2ccc(Cl)cc2)s1
IC50 [19]: 32.3 µM (active)

OC1(c2ccc(F)cc2)CCN(Cc2ccccc2)C1 (stereo unspecified)
EC50 [17]: 2.99 µM (active)

Cc1cc(-c2nnc(S)n2/N=C/c2ccco2)[nH]n1
IC50 [19]: 14.2 µM (active)

NCCCCC(=O)O [5-AMINOVALERIC ACID]
AC50 (Cytochrome P450 2D6): inconclusive
